Experiments:
[1] = target: T1, Adrenergic β2 (H292 cells) (Homo sapiens, UniProt P07550); experiment: Adrenergic β2 Mediated cAMP Production, single concentration 1 μM; type: cell-based; settings: NCI-H292, 1 μM compound, percentage of the maximum response generated by 1E-07M formoterol, read-out: β2 (% effect at 1 μM)
T1 construct: endogenous in cells; host or cells: H292 cells
Protocol: The following experimental procedure was used to measure the beta-2% effect at 1 μM for the compounds of Examples 116-263. Adrenergic β2 Mediated cAMP Production Cell Preparation
H292 cells are grown in 225 cm2 flasks incubator at 37° C., 5% CO2 in RPMI medium containing 10% (v/v) FBS (foetal bovine serum) and 2 mM L-glutamine.
Compounds were prepared by an initial first dilution into DMSO to give 1 mM stock concentration. This was followed by a 1 in 10 dilution of the stock concentration (10 μl stock compound+90 μl DMSO) to give 0.1 mM compound.
A compound addition plate was prepared by making a further 1 in 25 dilution in assay buffer (HBSS solution containing 10 mM HEPES pH7.4 and 5 mM glucose) containing 4% dimethylsulfoxide. The final compound concentration in assay is 1 μM.
Adherent H292 cells are removed from tissue culture flasks by treatment with Accutase™ cell detachment solution for 15 minutes. Flasks are incubated for 15 minutes in a humidified incubator at 37° C., 5% CO2. Detached cells are re-suspended in RPMI media (containing 10% (v/v) FBS and 2 mM L-glutamine) at 0.1×10^6 cells per mL. 10000 cells in 100 μL are added to each well of a tissue-culture-treated 96-well plate and the cells incubated overnight in a humidified incubator at 37° C., 5% CO2. The culture media is removed and cells are washed twice with 100 μL assay buffer and replaced with 50 μL assay buffer (HBSS solution containing 10 mM HEPES pH7.4 and 5 mM glucose). Cells are rested at room temperature for 20 minutes after which time 25 μL of rolipram (1.2 mM made up in assay buffer) is added. Cells are incubated with rolipram for 10 minutes after which time 25 μl test compounds are added and the cells are incubated for 60 minutes at room temperature. The final rolipram concentration in the assay is 300 μM and final vehicle concentration is 1% (v/v) dimethylsulphoxide. The reaction is stopped by removing supernatants, washing once with 100 μL assay buffer and replacing with 50 μL lysis buffer. The cell monolayer is frozen at −80° C. for 30 minutes (or overnight).
AlphaScreen™ cAMP Detection
The concentration of cAMP (cyclic adenosine monophosphate) in the cell lysate is determined using AlphaScreen™ methodology. The frozen cell plate is thawed for 20 minutes on a plate shaker then 10 μL of the cell lysate is transferred to a 96-well white plate. 40 μL of mixed AlphaScreen™ detection beads (containing equal volumes of donor beads (pre-incubated with biotinylated cAMP in the dark for 30 minutes) and acceptor beads is added to each well and the plate incubated at room temperature for 3 hours in the dark. The AlphaScreen™ signal is measured using an EnVision spectrophotometer (Perkin-Elmer Inc.) with the recommended manufacturer's settings. Concentration of cAMP produced per well were calculated with reference to the cAMP standard curve determined in the same experiment and expressed as a percentage of the maximum response generated by 1E-07M formoterol.

[2] = target: T2, human muscarinic acetylcholine M3 receptor (M3-ACh) (Homo sapiens, UniProt P20309); experiment: Muscarinic 3 Receptor Binding Assay, % inhibition specific binding at 1 μM; settings: 1 μM compound, % inhibition specific [3H]-NMS binding
T2 construct: expressed in transfected cells; host or cells: CHO-K1 (Chinese Hamster Ovary) cell membranes
T2 sequence (P20309 whole entry): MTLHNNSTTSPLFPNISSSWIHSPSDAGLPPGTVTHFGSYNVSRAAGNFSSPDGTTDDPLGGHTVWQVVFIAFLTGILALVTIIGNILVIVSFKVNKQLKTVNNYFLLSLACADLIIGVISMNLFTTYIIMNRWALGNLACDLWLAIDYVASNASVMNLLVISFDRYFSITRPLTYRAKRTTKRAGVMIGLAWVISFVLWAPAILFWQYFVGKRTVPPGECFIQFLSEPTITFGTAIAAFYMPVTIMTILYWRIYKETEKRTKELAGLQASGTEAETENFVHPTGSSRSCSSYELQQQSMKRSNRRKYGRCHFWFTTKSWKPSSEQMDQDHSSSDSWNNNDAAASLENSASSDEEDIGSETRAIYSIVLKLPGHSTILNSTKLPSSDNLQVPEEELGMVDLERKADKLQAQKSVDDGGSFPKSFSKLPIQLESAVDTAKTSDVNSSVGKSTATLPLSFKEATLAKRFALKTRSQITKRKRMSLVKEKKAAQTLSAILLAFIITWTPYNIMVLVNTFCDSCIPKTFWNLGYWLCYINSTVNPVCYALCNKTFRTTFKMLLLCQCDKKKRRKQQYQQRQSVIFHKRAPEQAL
Protocol: The following experimental procedure was used to determine the M3% inhibition at 1 μM of the compounds of Examples 116-263.
Muscarinic 3 Receptor Binding Assay
The activity (% inhibition specific binding) of compounds -on the M3 receptor is determined by competition binding of [^3H]N-methyl scopolamine (NMS) to CHO-K1 (Chinese Hamster Ovary) cell membranes expressing the human muscarinic acetylcholine M3 receptor (M3-ACh) in a scintillation proximity assay (SPA) format.
SPA beads are precoated with membranes and then incubated at 2 mg of beads per well with 1 μM compound of the invention, [^3H]NMS at 0.1 nM, quarter Kd (experimentally determined dissociation constant) and assay buffer (20 mM HEPES pH 7.4 containing 5 mM MgCl2). The assay is conducted in a final volume of 200 μL, in the presence of 1% (v/v) dimethyl sulphoxide (DMSO). Total binding of [^3H]NMS is determined in the absence of competing compound and non-specific binding of [^3H]NMS is determined in the presence of 1 μM atropine. The plates are incubated for 16 hours at room temperature and then read on Wallac Microbeta™ using a normalised ^3H protocol. The compound activity at 1 defined as % inhibition specific [^3H]-NMS binding, is determined.

T1 sequence (P07550 whole entry): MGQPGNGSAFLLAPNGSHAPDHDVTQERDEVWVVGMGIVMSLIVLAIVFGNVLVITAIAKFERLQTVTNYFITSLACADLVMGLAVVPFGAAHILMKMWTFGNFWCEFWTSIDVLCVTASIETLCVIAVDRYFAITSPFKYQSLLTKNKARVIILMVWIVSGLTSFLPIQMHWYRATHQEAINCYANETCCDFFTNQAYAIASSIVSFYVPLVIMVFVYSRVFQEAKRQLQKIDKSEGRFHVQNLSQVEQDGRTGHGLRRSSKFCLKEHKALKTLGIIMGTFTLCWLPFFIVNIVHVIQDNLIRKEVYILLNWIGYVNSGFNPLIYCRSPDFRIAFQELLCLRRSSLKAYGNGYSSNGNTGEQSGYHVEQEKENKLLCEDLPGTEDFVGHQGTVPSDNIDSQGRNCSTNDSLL

Row | activation at 1 µM [1] [%] | inhibition at 1 µM [2] [%] | Structure (SMILES)
1 | 100 | 91 | Cc1cc(C(=O)N2CCOC3(CCN(Cc4cc(F)cc(CCNC[C@H](O)c5ccc(O)c6[nH]c(=O)sc56)c4)CC3)C2)c(C)s1 [Example 150, (R)-7-(2-(3-((4-(2,5-dimethylthiophene-3-carbonyl)-1-oxa-4,9-diazaspiro[5.5]undecan-9-yl)methyl)-5-fluorophenethylamino)-1-hydroxyethyl)-4-hydroxybenzo[d]thiazol-2(3H)-one]
2 | 98 | 71 | Cc1nonc1C(=O)N1CCOC2(CCN(Cc3cc(F)cc(CCNC[C@H](O)c4ccc(O)c5[nH]c(=O)sc45)c3)CC2)C1 [Example 151, (R)-7-(2-(3-fluoro-5-((4-(4-methyl-1,2,5-oxadiazole-3-carbonyl)-1-oxa-4,9-diazaspiro[5.5]undecan-9-yl)methyl)phenethylamino)-1-hydroxyethyl)-4-hydroxybenzo[d]thiazol-2(3H)-one]
3 | 110 | 13 | Cc1nc2ccccn2c1C(=O)N1CCOC2(CCN(Cc3cc(F)cc(CCNC[C@H](O)c4ccc(O)c5[nH]c(=O)sc45)c3)CC2)C1 [Example 152, (R)-7-(2-(3-fluoro-5-((4-(2-methylimidazo[1,2-a]pyridine-3-carbonyl)-1-oxa-4,9-diazaspiro[5.5]undecan-9-yl)methyl)phenethylamino)-1-hydroxyethyl)-4-hydroxybenzo[d]thiazol-2(3H)-one]
4 | 98 | 67 | Cc1ccn(CC(=O)N2CCOC3(CCN(Cc4cc(F)cc(CCNC[C@H](O)c5ccc(O)c6[nH]c(=O)sc56)c4)CC3)C2)n1 [Example 153, (R)-7-(2-(3-fluoro-5-((4-(2-(3-methyl-1H-pyrazol-1-yl)acetyl)-1-oxa-4,9-diazaspiro[5.5]undecan-9-yl)methyl)phenethylamino)-1-hydroxyethyl)-4-hydroxybenzo[d]thiazol-2(3H)-one]
5 | 102 | 28 | CCOc1ccc(O)c(C(=O)N2CCOC3(CCN(Cc4cc(F)cc(CCNC[C@H](O)c5ccc(O)c6[nH]c(=O)sc56)c4)CC3)C2)c1 [Example 154, (R)-7-(2-(3-((4-(5-ethoxy-2-hydroxybenzoyl)-1-oxa-4,9-diazaspiro[5.5]undecan-9-yl)methyl)-5-fluorophenethylamino)-1-hydroxyethyl)-4-hydroxybenzo[d]thiazol-2(3H)-one]
6 | 101 | 4 | O=C(c1cc(-c2ccccc2)n[nH]1)N1CCOC2(CCN(Cc3cc(F)cc(CCNC[C@H](O)c4ccc(O)c5[nH]c(=O)sc45)c3)CC2)C1 [Example 155, (R)-7-(2-(3-fluoro-5-((4-(3-phenyl-1H-pyrazole-5-carbonyl)-1-oxa-4,9-diazaspiro[5.5]undecan-9-yl)methyl)phenethylamino)-1-hydroxyethyl)-4-hydroxybenzo[d]thiazol-2(3H)-one]
7 | 106 | 3 | O=C(c1ccc(-n2ccnc2)cc1)N1CCOC2(CCN(Cc3cc(F)cc(CCNC[C@H](O)c4ccc(O)c5[nH]c(=O)sc45)c3)CC2)C1 [Example 156, (R)-7-(2-(3-((4-(4-(1H-imidazol-1-yl)benzoyl)-1-oxa-4,9-diazaspiro[5.5]undecan-9-yl)methyl)-5-fluorophenethylamino)-1-hydroxyethyl)-4-hydroxybenzo[d]thiazol-2(3H)-one]
8 | 102 | 13 | Cc1ccc2[nH]c(C(=O)N3CCOC4(CCN(Cc5cc(F)cc(CCNC[C@H](O)c6ccc(O)c7[nH]c(=O)sc67)c5)CC4)C3)cc2c1 [Example 157, (R)-7-(2-(3-fluoro-5-((4-(5-methyl-1H-indole-2-carbonyl)-1-oxa-4,9-diazaspiro[5.5]undecan-9-yl)methyl)phenethylamino)-1-hydroxyethyl)-4-hydroxybenzo[d]thiazol-2(3H)-one]
9 | 95 | 72 | O=C([C@@H]1CCCO1)N1CCOC2(CCN(Cc3cc(F)cc(CCNC[C@H](O)c4ccc(O)c5[nH]c(=O)sc45)c3)CC2)C1 [Example 158, 7-((R)-2-(3-fluoro-5-((4-((S)-tetrahydrofuran-2-carbonyl)-1-oxa-4,9-diazaspiro[5.5]undecan-9-yl)methyl)phenethylamino)-1-hydroxyethyl)-4-hydroxybenzo[d]thiazol-2(3H)-one]
10 | 90 | 3 | O=C(c1ccc(-c2cnco2)cc1)N1CCOC2(CCN(Cc3cc(F)cc(CCNC[C@H](O)c4ccc(O)c5[nH]c(=O)sc45)c3)CC2)C1 [Example 159, (R)-7-(2-(3-fluoro-5-((4-(4-(oxazol-5-yl)benzoyl)-1-oxa-4,9-diazaspiro[5.5]undecan-9-yl)methyl)phenethylamino)-1-hydroxyethyl)-4-hydroxybenzo[d]thiazol-2(3H)-one]
11 | 91 | 5 | O=C(c1ccnn1-c1ccccc1)N1CCOC2(CCN(Cc3cc(F)cc(CCNC[C@H](O)c4ccc(O)c5[nH]c(=O)sc45)c3)CC2)C1 [Example 160, (R)-7-(2-(3-fluoro-5-((4-(1-phenyl-1H-pyrazole-5-carbonyl)-1-oxa-4,9-diazaspiro[5.5]undecan-9-yl)methyl)phenethylamino)-1-hydroxyethyl)-4-hydroxybenzo[d]thiazol-2(3H)-one]
12 | 87 | 42 | CC1=NNC(=O)C1CCC(=O)N1CCOC2(CCN(Cc3cc(F)cc(CCNC[C@H](O)c4ccc(O)c5[nH]c(=O)sc45)c3)CC2)C1 (stereo partly drawn) [Example 161, 7-((1R)-2-(3-fluoro-5-((4-(3-(3-methyl-5-oxo-4,5-dihydro-1H-pyrazol-4-yl)propanoyl)-1-oxa-4,9-diazaspiro[5.5]undecan-9-yl)methyl)phenethylamino)-1-hydroxyethyl)-4-hydroxybenzo[d]thiazol-2(3H)-one]
13 | 91 | 8 | Cc1nc2cc(C(=O)N3CCOC4(CCN(Cc5cc(F)cc(CCNC[C@H](O)c6ccc(O)c7[nH]c(=O)sc67)c5)CC4)C3)ccc2n1C [Example 162, (R)-7-(2-(3-((4-(1,2-dimethyl-1H-benzo[d]imidazole-5-carbonyl)-1-oxa-4,9-diazaspiro[5.5]undecan-9-yl)methyl)-5-fluorophenethylamino)-1-hydroxyethyl)-4-hydroxybenzo[d]thiazol-2(3H)-one]
14 | 95 | 25 | Cc1nonc1CC(=O)N1CCOC2(CCN(Cc3cc(F)cc(CCNC[C@H](O)c4ccc(O)c5[nH]c(=O)sc45)c3)CC2)C1 [Example 163, (R)-7-(2-(3-fluoro-5-((4-(2-(4-methyl-1,2,5-oxadiazol-3-yl)acetyl)-1-oxa-4,9-diazaspiro[5.5]undecan-9-yl)methyl)phenethylamino)-1-hydroxyethyl)-4-hydroxybenzo[d]thiazol-2(3H)-one]
15 | 99 | 35 | O=C(CCn1cncn1)N1CCOC2(CCN(Cc3cc(F)cc(CCNC[C@H](O)c4ccc(O)c5[nH]c(=O)sc45)c3)CC2)C1 [Example 164, (R)-7-(2-(3-((4-(3-(1H-1,2,4-triazol-1-yl)propanoyl)-1-oxa-4,9-diazaspiro[5.5]undecan-9-yl)methyl)-5-fluorophenethylamino)-1-hydroxyethyl)-4-hydroxybenzo[d]thiazol-2(3H)-one]

From patent US8148373B2, “Compounds” (AstraZeneca AB, priority 2008, dated 2012)
